ChEMBL document CHEMBL5543121, “Drug Repurposing of ACT001 to Discover Novel Promising Sulfide Prodrugs with Improved Safety and Potent Activity for Neutrophil-Mediated Antifungal Immunotherapy” (J Med Chem, 2024)
pKd: −log10 of the molar value. Active and inactive are the calls of the source. No cut-off for these calls is given here.

What was measured:
[1] = Subacute toxicity in C57BL/6 mouse assessed as histopathological changes in lung at 100 mg/kg, po administered daily for 14 days; format: organism-based; details: in vivo, 336 h, time 14 day
[2] = Subacute toxicity in C57BL/6 mouse assessed as abnormal behavior at 100 mg/kg, po administered daily for 14 days and measured every day; format: organism-based; details: in vivo, 336 h, time 14 day
[3] = Acute toxicity in C57BL/6 mouse assessed as histopathological changes in heart at 500 mg/kg, po administered as single dose and measured after 14 days; format: organism-based; details: in vivo, 336 h, time 14 day
[4] = AUC (0 to infinity) in male Sprague-Dawley rat at 2 mg/kg, iv by LC-MS/MS analysis; format: ADME, organism-based; details: in vivo
[5] = Subacute toxicity in C57BL/6 mouse assessed as histopathological changes in kidney at 100 mg/kg, po administered daily for 14 days; format: organism-based; details: in vivo, 336 h, time 14 day
[6] = Acute toxicity in C57BL/6 mouse assessed as body weight loss at 500 mg/kg, po administered as single dose and measured every day for 14 days; format: organism-based; details: in vivo, 336 h, time 14 day
[7] = Subacute toxicity in C57BL/6 mouse assessed as histopathological changes in heart at 100 mg/kg, po administered daily for 14 days; format: organism-based; details: in vivo, 336 h, time 14 day
[8] = molecular target: Signal transducer and activator of transcription 3 (Mus musculus) (UniProt P42227); assay: Inhibition of biotinylated ACT001 probe binding to STAT3 in mouse bone marrow neutrophils at 100 uM by pulldown based Western blot analysis; format: cell-based; details: Neutrophil
Signal transducer and activator of transcription 3 (Mus musculus), sequence (P42227 whole entry): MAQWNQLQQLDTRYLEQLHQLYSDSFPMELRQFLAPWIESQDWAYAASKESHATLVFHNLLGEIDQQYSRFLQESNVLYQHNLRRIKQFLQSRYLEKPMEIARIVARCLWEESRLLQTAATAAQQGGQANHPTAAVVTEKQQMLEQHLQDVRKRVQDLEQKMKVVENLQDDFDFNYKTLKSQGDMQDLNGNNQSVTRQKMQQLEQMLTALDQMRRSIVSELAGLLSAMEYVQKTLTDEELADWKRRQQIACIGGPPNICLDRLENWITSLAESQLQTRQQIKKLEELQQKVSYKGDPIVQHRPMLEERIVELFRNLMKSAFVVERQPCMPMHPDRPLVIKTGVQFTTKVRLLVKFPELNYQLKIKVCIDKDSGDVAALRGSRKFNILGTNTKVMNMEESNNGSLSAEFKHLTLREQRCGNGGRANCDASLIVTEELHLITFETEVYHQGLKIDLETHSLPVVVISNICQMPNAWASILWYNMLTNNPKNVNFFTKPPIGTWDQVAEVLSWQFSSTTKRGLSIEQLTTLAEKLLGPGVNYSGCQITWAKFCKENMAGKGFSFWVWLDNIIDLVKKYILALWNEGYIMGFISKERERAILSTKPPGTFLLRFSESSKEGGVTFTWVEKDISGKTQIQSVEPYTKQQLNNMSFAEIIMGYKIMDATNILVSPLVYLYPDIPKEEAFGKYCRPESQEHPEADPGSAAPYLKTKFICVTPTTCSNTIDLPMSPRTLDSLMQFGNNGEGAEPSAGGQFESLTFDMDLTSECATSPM

[9] = Initial plasma concentration in male Sprague-Dawley rat at 2 mg/kg, iv by LC-MS/MS analysis; format: ADME, organism-based
[10] = Acute toxicity in C57BL/6 mouse assessed as effect on AST level in serum at 500 mg/kg, po administered as single dose and measured every day for 14 days; format: organism-based; details: in vivo, 336 h, time 14 day
[11] = tested on: Candida albicans; assay: Induction of neutrophil-mediated antifungal immunity against Candida albicans SC5314 infected in mouse assessed as reduction in accumulation of Ly6G positive neutrophils in bone marrow at 50 to 100 mg/kg, po administered once a day for 3 days; format: functional, organism-based; details: dose 50-100 mg/kg, time 3.0 day
[12] = Subacute toxicity in C57BL/6 mouse assessed as effect on ALT level in serum at 100 mg/kg, po administered daily for 14 days and measured every day; format: organism-based; details: in vivo, 336 h, time 14 day
[13] = Permeability of compound in PBS/EtOH (70:30) buffer incubated for 12 hrs by PAMPA-BBB assay; format: ADME; details: read-out: permeability
[14] = Acute toxicity in C57BL/6 mouse assessed as histopathological changes in kidney at 500 mg/kg, po administered as single dose and measured after 14 days; format: organism-based; details: in vivo, 336 h, time 14 day
[15] = tested on: Candida albicans; assay: Induction of neutrophil-mediated antifungal immunity against Candida albicans SC5314 infected in cyclophosphamide-induced immunosuppressed C57BL/6 mouse at 50 to 100 mg/kg, po pretreated with CTX for 3 days followed by fungal infection and further administered with compound once a day for 3 days; format: functional, organism-based; details: dose 50-100 mg/kg, time 3.0 day
[16] = Acute toxicity in C57BL/6 mouse assessed as change in heart weight at 500 mg/kg, po administered as single dose and measured after 14 days; format: organism-based; details: in vivo, 336 h, time 14 day
[17] = tested on: Neutrophil; assay: Induction of apoptosis in mouse neutrophils assessed as early apoptotic cells at 40 uM incubated for 16 hrs by Annexin V-FITC/PI staining based flow cytometry analysis (reference value: 26.9%); format: toxicity, cell-based
[18] = Subacute toxicity in C57BL/6 mouse assessed as animal death at 100 mg/kg, po administered daily for 14 days and measured every day; format: organism-based; details: in vivo, 336 h, time 14 day
[19] = Acute toxicity in C57BL/6 mouse assessed as change in kidney weight at 500 mg/kg, po administered as single dose and measured after 14 days; format: organism-based; details: in vivo, 336 h, time 14 day
[20] = Subacute toxicity in C57BL/6 mouse assessed as effect on creatinine level in serum at 100 mg/kg, po administered daily for 14 days and measured every day; format: organism-based; details: in vivo, 336 h, time 14 day
[21] = tested on: Candida albicans; assay: Induction of neutrophil-mediated antifungal immunity against Candida albicans SC5314 infected in mouse assessed as reduction in fungal clusters in kidney at 50 to 100 mg/kg, po administered once a day for 3 days by PAS staining based analysis; format: functional, organism-based; details: dose 50-100 mg/kg, time 3.0 day
[22] = Acute toxicity in C57BL/6 mouse assessed as abnormal behavior at 500 mg/kg, po administered as single dose and measured every day for 14 days; format: organism-based; details: in vivo, 336 h, time 14 day
[23] = AUC (0 to infinity) in male Sprague-Dawley rat at 10 mg/kg, po by LC-MS/MS analysis; format: ADME, organism-based; details: in vivo
[24] = molecular target: Signal transducer and activator of transcription 3 (Homo sapiens, UniProt P40763); assay: Binding affinity to His-tagged human recombinant STAT3 assessed as dissociation constant by MST assay
Signal transducer and activator of transcription 3, sequence (P40763 whole entry): as the sequence (P42227 whole entry) above, with D760E counted along it

[25] = AUC (0 to t) in male Sprague-Dawley rat at 2 mg/kg, iv by LC-MS/MS analysis; format: ADME, organism-based; details: in vivo
[26] = tested on: Neutrophil; assay: Induction of apoptosis in mouse neutrophils assessed as dead cells at 40 uM incubated for 16 hrs by Annexin V-FITC/PI staining based flow cytometry analysis (reference value: 2.04%); format: toxicity, cell-based
[27] = tested on: Candida albicans; assay: Antifungal activity against Candida albicans SC5314 assessed as inhibition of fungal growth at 0.25 to 128 ug/ml measured every 3 hrs for 24 hrs by absorbance based analysis; format: functional, organism-based; details: dose 0.25-128 µg/ml
[28] = Acute toxicity in C57BL/6 mouse assessed as change in liver weight at 500 mg/kg, po administered as single dose and measured after 14 days; format: organism-based; details: in vivo, 336 h, time 14 day
[29] = Subacute toxicity in C57BL/6 mouse assessed as effect on urea level in serum at 100 mg/kg, po administered daily for 14 days and measured every day; format: organism-based; details: in vivo, 336 h, time 14 day
[30] = Tmax in male Sprague-Dawley rat at 2 mg/kg, iv by LC-MS/MS analysis; format: ADME, organism-based; details: in vivo
[31] = Subacute toxicity in C57BL/6 mouse assessed as change in kidney weight at 100 mg/kg, po administered daily for 14 days; format: organism-based; details: in vivo, 336 h, time 14 day
[32] = tested on: Polymorphonuclear neutrophil; assay: Inhibition of fungal curdlan induced CXCL1 protein expression in mouse polymorphonuclear neutrophils at 40 uM incubated for 4 hrs by ELISA; format: functional, cell-based
[33] = tested on: Neutrophil; assay: Potency index, ratio of ACT001 IC50 to test compound IC50 for inhibition of fungal curdlan induced PD-L1 expression in mouse neutrophils assessed as reduction in PD-L1 positive Ly6G positive neutrophils incubated for 16 hrs by flow cytometry analysis; format: functional
[34] = Subacute toxicity in C57BL/6 mouse assessed as change in spleen weight at 100 mg/kg, po administered daily for 14 days; format: organism-based; details: in vivo, 336 h, time 14 day
[35] = Acute toxicity in C57BL/6 mouse assessed as histopathological changes in spleen at 500 mg/kg, po administered as single dose and measured after 14 days; format: organism-based; details: in vivo, 336 h, time 14 day
[36] = MRT (0 to t) in male Sprague-Dawley rat at 2 mg/kg, iv by LC-MS/MS analysis; format: ADME, organism-based; details: in vivo
[37] = Tmax in male Sprague-Dawley rat at 10 mg/kg, po by LC-MS/MS analysis; format: ADME, organism-based; details: in vivo
[38] = tested on: Candida albicans; assay: Antifungal activity against candida albicans SC5314 infected in mouse assessed as reduction in fungal burden in kidney at 200 mg/kg, po administered on day 1 and 3; format: functional, organism-based; details: time 1-3 day

For `C[C@@]1(O)CC[C@]23O[C@@]2(C)CC[C@@H]2[C@H](OC(=O)[C@H]2CS(=O)(=O)c2c(Cl)cccc2Cl)[C@@H]13`, the Activity [1] was “Non-Toxic”, the Activity [2] was “Non-Toxic” and the Activity [3] was “Non-Toxic”. For the same compound, the AUC(0-inf) [4] was 75.4 ng·h/mL, the Activity [5] was “Non-Toxic” and the Activity [6] was “Non-Toxic”. The Activity [7] was “Non-Toxic”, the inhibition [8] was “Active” and the C0 [9] was 191 ng/mL. The Activity [10] was “Non-Toxic”, the Activity [11] was “Active” and the Activity [12] was “Non-Toxic”. The Papp at 12 h [13] was 1.22 ×10⁻⁶ cm/s, the Activity [14] was “Non-Toxic” and the Activity [15] was “inactive”. The Activity [16] was “Non-Toxic”, the Activity [17] was 28.5% and the Activity [18] was “Non-Toxic”. For the same compound, the Activity [19] was “Non-Toxic”, the Activity [20] was “Non-Toxic” and the Activity [21] was “Active”. For the same compound, the Activity [22] was “Non-Toxic”, the AUC(0-inf) [23] was 182 ng·h/mL and the pKd [24] was 7.04. The AUC(0-t) [25] was 73.9 ng·h/mL, the Activity [26] was 2.72% and the Activity [27] was “inactive”. For the same compound, the Activity [28] was “Non-Toxic”, the Activity [29] was “Non-Toxic” and the Tmax [30] was 8.4 min. For the same compound, the Activity [31] was “Non-Toxic”, the inhibition [32] was “Active” and the “Ratio IC50” value [33] was 4.46. For the same compound, the Activity [34] was “Non-Toxic”, the Activity [35] was “Non-Toxic” and the MRT last [36] was 15 min. For the same compound, the Tmax [37] was 19.8 min and the Activity [38] was “Active”.
